Assay results: PubChem BioAssay (NCI)
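Test compounds were applied to cells in 96-well plates for 48 hours at 5 doses. GI50 is the concentration that inhibits growth by half. At the TGI there is no net growth.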

How the values were obtained:
Assay in all cases: DTP human tumour cell line panel, 48 h
A498 renal = system: A498 renal
DU-145 prostate = system: DU-145 prostate
K-562 leukemia = system: K-562 leukemia
MDA-MB-231 breast = system: MDA-MB-231 breast
MDA-MB-435 = system: MDA-MB-435
NCI-H23 lung = system: NCI-H23 lung
OVCAR-3 ovarian = system: OVCAR-3 ovarian
SK-MEL-2 melanoma = system: SK-MEL-2 melanoma
TK-10 renal = system: TK-10 renal
UO-31 renal = system: UO-31 renal

| Structure (SMILES) | GI50 (A498 renal) | TGI (A498 renal) | GI50 (DU-145 prostate) | TGI (DU-145 prostate) | GI50 (K-562 leukemia) | TGI (K-562 leukemia) | GI50 (MDA-MB-231 breast) | TGI (MDA-MB-231 breast) | GI50 (MDA-MB-435) | TGI (MDA-MB-435) | GI50 (NCI-H23 lung) | TGI (NCI-H23 lung) | GI50 (OVCAR-3 ovarian) | TGI (OVCAR-3 ovarian) | GI50 (SK-MEL-2 melanoma) | TGI (SK-MEL-2 melanoma) | GI50 (TK-10 renal) | TGI (TK-10 renal) | GI50 (UO-31 renal) | TGI (UO-31 renal) |
| --- | --- | --- | --- | --- | --- | --- | --- | --- | --- | --- | --- | --- | --- | --- | --- | --- | --- | --- | --- | --- |
| C=C(C)[C@@H]1CC[C@]2(C(N)=O)CC[C@]3(C)[C@H](CC[C@@H]4[C@@]5(C)C/C(=C/c6cccnc6)[C@H](O)C(C)(C)[C@@H]5CC[C@]43C)[C@@H]12 | 10.4 µM | > 100 µM | 7.08 µM | > 100 µM | 3.4 µM | > 100 µM | 99.5 µM | > 100 µM | 3.77 µM | > 100 µM | 4.96 µM | > 100 µM | 5.02 µM | > 100 µM | 4.35 µM | 42.9 µM | 16.3 µM | > 100 µM | 3.02 µM | > 100 µM |
| CN1CCN(CC(=O)N2c3cccc4cccc(c34)N(C(=O)CN3CCN(C)CC3)C2c2cn(-c3ccccc3)nc2-c2cccc([N+](=O)[O-])c2)CC1 | 1.92 µM | 3.95 µM | 3.27 µM | 10.4 µM | 1.22 µM | 3.81 µM | 1.84 µM | 3.68 µM | 1.98 µM | 3.93 µM | 2.13 µM | 5.45 µM | 1.76 µM | 3.4 µM | 1.95 µM | 4.04 µM | 2.42 µM | 5.61 µM | 1.32 µM | 2.75 µM |
| CCCCCC/C=C1\CCC(CN(C)C)C1=O (centres undefined) | – | 32.1 µM | – | 41.3 µM | – | 7.64 µM | – | 18 µM | – | 21.6 µM | – | 23.2 µM | – | 17.7 µM | – | 26.6 µM | – | 9.14 µM | – | 28.9 µM |
| COc1cc(C)c(NC(=O)CN(C)C)cc1Nc1nc(Nc2cccc(F)c2C(N)=O)c2cc[nH]c2n1 | 1.25 µM | 6.02 µM | 0.826 µM | 3.7 µM | 1.41 µM | 6.38 µM | 2.66 µM | 6.72 µM | 0.161 µM | 2.56 µM | 0.586 µM | 6.02 µM | 0.682 µM | 1.86 µM | 0.479 µM | 3.32 µM | 1.93 µM | 5.55 µM | 3.33 µM | 7.08 µM |
| CCN1CCN(c2ccc(Nc3ncc4ccc5ncn(C(C)C)c5c4n3)nc2)CC1 | < 0.0337 µM | 0.241 µM | 0.126 µM | 4.3 µM | 0.132 µM | – | 0.111 µM | 0.727 µM | 0.132 µM | 1.61 µM | 0.211 µM | 0.85 µM | 0.192 µM | 0.523 µM | 0.144 µM | 0.357 µM | 0.0359 µM | 0.873 µM | 0.0291 µM | 0.378 µM |
| Cc1nn(C)c2cc(N(C)c3ccnc(Nc4cccc(S(N)(=O)=O)c4)n3)ccc12 | 5.27 µM | 17.5 µM | 7.18 µM | > 25 µM | 2.13 µM | > 25 µM | 8.03 µM | > 25 µM | 6.12 µM | > 25 µM | 6.6 µM | > 25 µM | 8.19 µM | > 25 µM | 9.32 µM | > 25 µM | 5.93 µM | 24.4 µM | 3.44 µM | > 18.1 µM |
| O=S(=O)(CCCCl)SCCCCl | – | > 100 µM | – | > 100 µM | – | 47.5 µM | – | 69.4 µM | – | > 67.2 µM | – | > 100 µM | – | > 66.6 µM | – | > 100 µM | – | > 100 µM | – | > 100 µM |
| C=C1C(=O)O[C@H]2[C@H]1CC/C(COC(=O)NCc1cc(OC)cc(OC)c1)=C\CC[C@@]1(C)O[C@@H]21 | 2.11 µM | 5.8 µM | 0.724 µM | 2.03 µM | 1.56 µM | 5.94 µM | 1.61 µM | 4.07 µM | 1.99 µM | 4.11 µM | 1.84 µM | 4.32 µM | 1.01 µM | 2.31 µM | 1.66 µM | 3.54 µM | 1.66 µM | 3.18 µM | 1.51 µM | 2.95 µM |
| C=C(CN(C)C)C(=O)c1ccc(Oc2ccccc2)cc1 | – | 42.1 µM | – | 27.6 µM | – | 12.5 µM | – | 15.5 µM | – | 10.3 µM | – | 24.9 µM | – | 13.2 µM | – | 19.6 µM | – | 14.5 µM | – | 8.72 µM |
| COc1ccc2nc(-c3cc4c([nH]c5ccccc54)c(-c4ccc(F)c(F)c4)n3)[nH]c2c1 | 9.84 µM | 56.6 µM | 4.13 µM | 17.3 µM | 3.35 µM | 24.4 µM | 10.4 µM | 34 µM | 3.69 µM | 15.4 µM | 6.56 µM | 27.5 µM | 1.94 µM | 4.12 µM | 12.1 µM | 34.9 µM | 4.29 µM | 17.3 µM | 1.46 µM | 16.1 µM |
| CC1=CC(=O)c2ccc(C)cc2C1=O | – | 34.4 µM | – | 35.7 µM | – | > 100 µM | – | 24.2 µM | – | 5.78 µM | – | 23.9 µM | – | 29.1 µM | – | 44.3 µM | – | 34 µM | – | 24.6 µM |
